{"source": "ChEMBL document CHEMBL5096221", "about": "“Discovery of a Highly Potent and Orally Bioavailable STAT3 Dual Phosphorylation Inhibitor for Pancreatic Cancer Treatment” (J Med Chem, 2022)", "key": {"[1]": {"experiment": "Microsomal stability in human liver microsomes assessed as intrinsic clearance incubated upto 40 mins in presence of NADPH by LC-MS/MS analysis", "format": "ADME, Microsome", "conditions": "read-out: CLH"}, "BXPC-3 [2]": {"tested_on": "BXPC-3", "experiment": "Inhibition of mitochondrial respiration in human BXPC-3 cells assessed as reduction in basal respiration rate at 1 to 30 nM incubated for 1 hr by seahorse XF96 flux analyzer", "format": "functional, cell-based", "conditions": "dose 1-30 nM, DDE = dose-dependent effect"}, "[3]": {"molecular_target": "T1, Signal transducer and activator of transcription 3 (Homo sapiens, UniProt P40763)", "T1 sequence (P40763 whole entry)": "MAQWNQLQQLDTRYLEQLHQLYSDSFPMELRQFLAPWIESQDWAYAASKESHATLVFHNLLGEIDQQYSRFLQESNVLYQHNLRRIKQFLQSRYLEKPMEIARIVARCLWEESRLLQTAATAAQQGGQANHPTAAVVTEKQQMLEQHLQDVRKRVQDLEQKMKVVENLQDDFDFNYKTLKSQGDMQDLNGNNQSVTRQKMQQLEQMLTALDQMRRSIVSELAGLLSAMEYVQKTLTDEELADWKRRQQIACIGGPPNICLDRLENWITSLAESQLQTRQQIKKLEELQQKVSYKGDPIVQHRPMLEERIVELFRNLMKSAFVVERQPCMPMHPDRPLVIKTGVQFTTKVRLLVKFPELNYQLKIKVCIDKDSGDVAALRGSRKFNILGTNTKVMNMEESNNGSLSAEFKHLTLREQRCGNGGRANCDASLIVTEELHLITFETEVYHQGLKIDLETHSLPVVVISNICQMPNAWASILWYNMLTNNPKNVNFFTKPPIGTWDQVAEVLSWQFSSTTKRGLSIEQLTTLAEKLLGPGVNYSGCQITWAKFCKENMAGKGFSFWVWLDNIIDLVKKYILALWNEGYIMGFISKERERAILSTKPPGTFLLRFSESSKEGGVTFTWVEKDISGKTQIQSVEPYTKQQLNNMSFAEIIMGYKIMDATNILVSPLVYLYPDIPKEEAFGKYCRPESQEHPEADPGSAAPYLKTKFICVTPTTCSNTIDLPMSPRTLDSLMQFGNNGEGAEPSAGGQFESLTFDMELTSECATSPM", "experiment": "Inhibition of STAT3 in human Capan-2 cells assessed as inhibition of STAT3 phosphorylation at Ser 727 at 1 to 30 nM incubated for 22 to 24 hrs by western blot analysis", "format": "cell-based", "conditions": "dose 1-30 nM, time 22-24 hrs, DDE = dose-dependent effect"}, "PC-3 [4]": {"tested_on": "PC-3", "experiment": "Anti-proliferative activity against human PC-3 cells assessed as cell growth inhibition incubated for 72 hrs by MTS assay", "format": "functional, cell-based", "conditions": "PC-3, 72 h"}, "[5]": {"experiment": "Half life in BALB/c mouse at 10 mg/kg,po measured upto 24 hrs by LC-MS/MS analysis", "format": "ADME, organism-based", "conditions": "in vivo"}, "Cytochrome P450 2D6": {"molecular_target": "Cytochrome P450 2D6 (Homo sapiens, UniProt P10635)", "sequence (P10635 whole entry)": "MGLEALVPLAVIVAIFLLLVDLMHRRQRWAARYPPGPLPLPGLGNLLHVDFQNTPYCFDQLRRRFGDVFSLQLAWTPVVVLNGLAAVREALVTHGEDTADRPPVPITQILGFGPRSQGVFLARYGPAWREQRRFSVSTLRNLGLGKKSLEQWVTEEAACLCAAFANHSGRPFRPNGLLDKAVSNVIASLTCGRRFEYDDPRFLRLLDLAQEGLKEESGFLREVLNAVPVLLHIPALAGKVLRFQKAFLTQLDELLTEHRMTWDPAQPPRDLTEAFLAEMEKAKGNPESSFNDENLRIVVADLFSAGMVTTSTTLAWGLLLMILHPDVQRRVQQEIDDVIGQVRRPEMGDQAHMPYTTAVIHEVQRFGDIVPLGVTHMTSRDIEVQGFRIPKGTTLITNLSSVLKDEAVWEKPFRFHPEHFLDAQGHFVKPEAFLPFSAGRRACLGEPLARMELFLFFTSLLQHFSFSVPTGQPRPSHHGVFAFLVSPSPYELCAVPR", "experiment": "Inhibition of CYP2D6 in human liver microsomes using dextromethorphan as substrate incubated for 60 mins in presence of NADPH by HPLC analysis", "format": "ADME, Microsome"}, "[6]": {"experiment": "Cmax in BALB/c mouse at 10 mg/kg,po measured upto 24 hrs by LC-MS/MS analysis", "format": "ADME, organism-based", "parameters": "time < 24 hrs, dose 10 mg/kg, route po", "conditions": "in vivo"}, "[7]": {"experiment": "Volume of distribution at steady state in BALB/c mouse at 1 mg/kg,iv measured upto 24 hrs by LC-MS/MS analysis", "format": "ADME, organism-based", "conditions": "BALB/c, in vivo, read-out: Vdss"}, "BXPC-3 [8]": {"tested_on": "BXPC-3", "experiment": "Antitumor activity against human BXPC-3 cells xenografted BALB/c mouse model assessed as tumor growth inhibition at 10 mg/kg,po administrated once daily for 8 weeks", "format": "functional", "conditions": "BXPC-3, 1344 h, read-out: TGI"}, "Capan-2": {"tested_on": "Capan-2", "experiment": "Anti-proliferative activity against human Capan-2 cells assessed as cell growth inhibition incubated for 72 hrs by MTS assay", "format": "functional, cell-based", "conditions": "Capan-2, 72 h"}, "[9]": {"experiment": "Toxicity in BALB/c mouse xenografted with human BXPC-3 cells assessed as effect on spleen at 30 mg/kg,po administrated once daily for 8 weeks by H and E staining based microscopic analysis", "format": "organism-based", "conditions": "in vivo, 1344 h"}, "[10]": {"molecular_target": "Tyrosine-protein kinase JAK2 (Homo sapiens, UniProt O60674)", "sequence (O60674 whole entry)": "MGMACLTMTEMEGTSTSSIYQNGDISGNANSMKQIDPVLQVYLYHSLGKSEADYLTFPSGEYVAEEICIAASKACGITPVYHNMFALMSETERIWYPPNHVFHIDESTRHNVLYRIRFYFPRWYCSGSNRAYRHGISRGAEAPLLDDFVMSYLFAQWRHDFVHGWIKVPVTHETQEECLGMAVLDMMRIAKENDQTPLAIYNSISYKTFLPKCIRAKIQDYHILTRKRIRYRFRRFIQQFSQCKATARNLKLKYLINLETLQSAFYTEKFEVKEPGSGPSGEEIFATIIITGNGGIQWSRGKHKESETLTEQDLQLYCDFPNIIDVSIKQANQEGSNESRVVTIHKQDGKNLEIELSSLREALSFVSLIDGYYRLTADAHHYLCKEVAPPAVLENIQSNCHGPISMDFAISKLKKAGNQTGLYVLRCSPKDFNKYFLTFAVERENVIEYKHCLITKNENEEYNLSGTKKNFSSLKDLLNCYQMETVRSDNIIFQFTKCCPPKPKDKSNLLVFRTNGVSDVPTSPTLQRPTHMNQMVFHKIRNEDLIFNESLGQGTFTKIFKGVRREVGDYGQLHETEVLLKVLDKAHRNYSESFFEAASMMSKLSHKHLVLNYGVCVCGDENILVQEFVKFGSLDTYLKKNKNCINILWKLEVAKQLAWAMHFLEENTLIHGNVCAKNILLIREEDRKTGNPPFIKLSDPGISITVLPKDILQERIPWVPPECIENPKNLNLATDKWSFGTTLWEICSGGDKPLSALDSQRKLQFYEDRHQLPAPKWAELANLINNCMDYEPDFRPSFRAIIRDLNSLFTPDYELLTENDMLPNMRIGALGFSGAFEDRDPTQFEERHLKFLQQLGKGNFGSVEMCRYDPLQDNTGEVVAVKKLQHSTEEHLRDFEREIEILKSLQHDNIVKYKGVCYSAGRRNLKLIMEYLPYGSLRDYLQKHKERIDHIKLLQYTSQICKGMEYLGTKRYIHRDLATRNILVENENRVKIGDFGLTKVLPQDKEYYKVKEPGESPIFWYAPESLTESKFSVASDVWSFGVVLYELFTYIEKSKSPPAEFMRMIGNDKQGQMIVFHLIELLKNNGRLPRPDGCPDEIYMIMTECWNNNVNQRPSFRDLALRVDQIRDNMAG", "experiment": "Inhibition of JAK2 (unknown origin)"}, "[11]": {"experiment": "Toxicity in BALB/c mouse xenografted with human BXPC-3 cells assessed as effect on heart at 30 mg/kg,po administrated once daily for 8 weeks by H and E staining based microscopic analysis", "format": "organism-based", "conditions": "in vivo, 1344 h"}, "[12]": {"experiment": "MRT (0 to last) in BALB/c mouse at 10 mg/kg,po measured upto 24 hrs by LC-MS/MS analysis", "format": "ADME, organism-based", "conditions": "in vivo"}, "Cytochrome P450 3A4": {"molecular_target": "Cytochrome P450 3A4 (Homo sapiens, UniProt P08684)", "sequence (P08684 whole entry)": "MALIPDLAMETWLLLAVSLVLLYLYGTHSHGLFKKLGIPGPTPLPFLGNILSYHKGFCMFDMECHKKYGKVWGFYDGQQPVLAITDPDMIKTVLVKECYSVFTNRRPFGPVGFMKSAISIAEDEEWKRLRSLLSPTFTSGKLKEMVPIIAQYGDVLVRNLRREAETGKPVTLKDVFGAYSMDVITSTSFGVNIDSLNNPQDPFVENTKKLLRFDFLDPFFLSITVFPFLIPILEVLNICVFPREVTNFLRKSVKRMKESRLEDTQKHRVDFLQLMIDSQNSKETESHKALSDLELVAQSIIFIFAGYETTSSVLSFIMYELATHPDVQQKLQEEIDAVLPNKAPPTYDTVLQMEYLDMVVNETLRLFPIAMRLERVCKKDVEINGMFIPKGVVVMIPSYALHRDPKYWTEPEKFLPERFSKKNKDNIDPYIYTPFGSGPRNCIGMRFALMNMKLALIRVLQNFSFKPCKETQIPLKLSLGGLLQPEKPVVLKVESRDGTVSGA", "experiment": "Inhibition of CYP3A4 in human liver microsomes using testosterone as substrate in presence of NADPH by HPLC analysis", "format": "ADME, Microsome"}, "[13]": {"molecular_target": "T1, Signal transducer and activator of transcription 3", "experiment": "Inhibition of STAT3 in human Capan-2 cells assessed as inhibition of STAT3 phosphorylation at Tyr 705 at 30 nM incubated for 4 to 24 hrs by western blot analysis", "format": "cell-based", "conditions": "time 4-24 hrs, TDE = time-dependent effect"}, "[14]": {"molecular_target": "T1, Signal transducer and activator of transcription 3", "experiment": "Binding affinity to human recombinant STAT3 expressed in Escherichia coli BL21 by MST assay"}, "[15]": {"experiment": "Toxicity in BALB/c mouse xenografted with human BXPC-3 cells assessed as body weight change at 30 mg/kg,po administrated once daily for 8 weeks", "format": "organism-based", "conditions": "in vivo, 1344 h"}, "CFPAC-1 [16]": {"tested_on": "CFPAC-1", "experiment": "Anti-proliferative activity against human CFPAC-1 cells assessed as cell growth inhibition incubated for 72 hrs by MTS assay", "format": "functional, cell-based", "conditions": "CFPAC-1, 72 h"}, "BXPC-3 [17]": {"tested_on": "BXPC-3", "experiment": "Antitumor activity against human BXPC-3 cells xenografted BALB/c mouse model assessed as reduction in Ki67 expression at 30 mg/kg,po administrated once daily for 8 weeks by immunohistochemical analysis", "format": "functional, organism-based"}, "Cytochrome P450 2C19": {"molecular_target": "Cytochrome P450 2C19 (Homo sapiens, UniProt P33261)", "sequence (P33261 whole entry)": "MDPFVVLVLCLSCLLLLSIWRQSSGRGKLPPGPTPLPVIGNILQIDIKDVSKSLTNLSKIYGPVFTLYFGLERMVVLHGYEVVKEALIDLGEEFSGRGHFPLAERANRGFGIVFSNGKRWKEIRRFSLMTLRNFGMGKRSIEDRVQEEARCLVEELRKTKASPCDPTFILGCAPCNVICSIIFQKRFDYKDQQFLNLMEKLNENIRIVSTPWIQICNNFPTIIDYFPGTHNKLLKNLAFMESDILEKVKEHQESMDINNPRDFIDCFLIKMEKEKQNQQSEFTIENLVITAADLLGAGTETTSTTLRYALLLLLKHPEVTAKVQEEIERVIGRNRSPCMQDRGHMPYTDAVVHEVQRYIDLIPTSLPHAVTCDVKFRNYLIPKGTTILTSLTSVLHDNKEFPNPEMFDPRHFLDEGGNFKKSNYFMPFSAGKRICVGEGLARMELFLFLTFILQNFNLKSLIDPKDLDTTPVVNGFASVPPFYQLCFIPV", "experiment": "Inhibition of CYP2C19 in human liver microsomes", "format": "ADME, Microsome"}, "[18]": {"experiment": "Toxicity in BALB/c mouse xenografted with human BXPC-3 cells assessed as effect on spleen at 10 mg/kg,po administrated once daily for 8 weeks by H and E staining based microscopic analysis", "format": "organism-based", "conditions": "in vivo, 1344 h"}, "[19]": {"molecular_target": "T1, Signal transducer and activator of transcription 3", "experiment": "Thermal stabilization of STAT3 in human BXPC-3 cells at 10 microM at 50.6 degreeC incubated for 1 hrs by cellular thermal shift assay", "format": "cell-based"}, "[20]": {"molecular_target": "T1, Signal transducer and activator of transcription 3", "experiment": "Inhibition of STAT3 in human HEK293T cells assessed as inhibition of IL-6 stimulated STAT3 phosphorylation by dual-luciferase reporter assay", "format": "cell-based"}, "[21]": {"experiment": "Toxicity in BALB/c mouse xenografted with human BXPC-3 cells assessed as effect on liver at 30 mg/kg,po administrated once daily for 8 weeks by H and E staining based microscopic analysis", "format": "organism-based", "conditions": "in vivo, 1344 h"}, "BXPC-3 [22]": {"tested_on": "BXPC-3", "experiment": "Inhibition of mitochondrial respiration in human BXPC-3 cells assessed as reduction in oxygen consumption rate at 1 to 30 nM incubated for 1 hr by seahorse XF96 flux analyzer", "format": "functional, cell-based", "conditions": "dose 1-30 nM, DDE = dose-dependent effect"}, "[23]": {"molecular_target": "T1, Signal transducer and activator of transcription 3", "experiment": "Inhibition of STAT3 in human BXPC-3 cells assessed as inhibition of IL-6 stimulated STAT3 phosphorylation at Tyr 705 at 1 to 30 nM by western blot assay", "format": "cell-based", "conditions": "dose 1-30 nM, DDE = dose-dependent effect"}, "[24]": {"experiment": "Toxicity in BALB/c mouse xenografted with human BXPC-3 cells assessed as effect on liver at 10 mg/kg,po administrated once daily for 8 weeks by H and E staining based microscopic analysis", "format": "organism-based", "conditions": "in vivo, 1344 h"}, "[25]": {"molecular_target": "Tyrosine-protein kinase JAK1 (Homo sapiens, UniProt P23458)", "sequence (P23458 whole entry)": "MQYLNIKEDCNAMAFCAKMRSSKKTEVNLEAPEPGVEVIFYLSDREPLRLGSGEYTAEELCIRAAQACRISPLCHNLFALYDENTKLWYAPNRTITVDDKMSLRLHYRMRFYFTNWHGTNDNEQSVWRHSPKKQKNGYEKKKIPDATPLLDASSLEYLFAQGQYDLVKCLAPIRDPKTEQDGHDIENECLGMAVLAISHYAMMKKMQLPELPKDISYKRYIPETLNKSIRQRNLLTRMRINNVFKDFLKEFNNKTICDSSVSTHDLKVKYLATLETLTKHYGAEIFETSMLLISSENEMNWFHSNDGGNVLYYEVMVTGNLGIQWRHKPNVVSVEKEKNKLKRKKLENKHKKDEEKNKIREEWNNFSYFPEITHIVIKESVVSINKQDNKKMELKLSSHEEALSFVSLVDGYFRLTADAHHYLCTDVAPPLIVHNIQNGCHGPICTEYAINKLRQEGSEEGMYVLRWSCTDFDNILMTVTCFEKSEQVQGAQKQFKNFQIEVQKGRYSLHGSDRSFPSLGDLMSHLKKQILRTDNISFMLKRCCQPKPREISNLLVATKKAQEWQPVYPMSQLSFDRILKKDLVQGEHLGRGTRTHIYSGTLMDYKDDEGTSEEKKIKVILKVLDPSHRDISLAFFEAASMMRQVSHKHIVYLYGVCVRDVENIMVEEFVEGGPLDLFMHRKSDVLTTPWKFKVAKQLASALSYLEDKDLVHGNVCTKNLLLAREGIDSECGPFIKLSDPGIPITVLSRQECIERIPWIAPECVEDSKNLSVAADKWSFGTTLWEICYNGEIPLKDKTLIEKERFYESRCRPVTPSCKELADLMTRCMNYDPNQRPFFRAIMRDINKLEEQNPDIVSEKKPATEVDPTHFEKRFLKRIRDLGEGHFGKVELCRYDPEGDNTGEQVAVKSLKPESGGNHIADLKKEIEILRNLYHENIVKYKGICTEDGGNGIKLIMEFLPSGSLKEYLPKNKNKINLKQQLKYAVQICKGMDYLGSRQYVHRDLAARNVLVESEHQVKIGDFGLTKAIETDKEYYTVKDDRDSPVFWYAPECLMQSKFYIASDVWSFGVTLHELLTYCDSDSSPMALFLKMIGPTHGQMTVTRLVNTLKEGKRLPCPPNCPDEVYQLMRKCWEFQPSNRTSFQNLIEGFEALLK", "experiment": "Inhibition of JAK1 (unknown origin)"}, "[26]": {"molecular_target": "T1, Signal transducer and activator of transcription 3", "experiment": "Inhibition of STAT3 in human Capan-2 cells assessed as inhibition of STAT3 phosphorylation at Ser 727 at 10 nM incubated for 22 to 24 hrs by western blot analysis", "format": "cell-based", "conditions": "time 22-24 hrs"}, "[27]": {"molecular_target": "Mitogen-activated protein kinase 3 (Homo sapiens, UniProt P27361)", "sequence (P27361 whole entry)": "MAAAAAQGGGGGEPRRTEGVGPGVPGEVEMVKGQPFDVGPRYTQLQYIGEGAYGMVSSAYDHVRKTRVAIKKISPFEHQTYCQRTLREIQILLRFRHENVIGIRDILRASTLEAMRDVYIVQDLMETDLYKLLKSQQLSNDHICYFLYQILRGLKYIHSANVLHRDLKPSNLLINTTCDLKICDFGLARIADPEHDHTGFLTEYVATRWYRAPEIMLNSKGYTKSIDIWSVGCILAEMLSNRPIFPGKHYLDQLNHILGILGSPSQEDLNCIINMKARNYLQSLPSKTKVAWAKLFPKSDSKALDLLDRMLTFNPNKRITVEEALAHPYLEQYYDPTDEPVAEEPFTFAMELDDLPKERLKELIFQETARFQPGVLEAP", "experiment": "Inhibition of ERK1 (unknown origin)"}, "[28]": {"experiment": "Microsomal stability in rat liver microsomes assessed as compound remaining incubated for 60 mins in presence of NADPH by LC-MS/MS analysis", "format": "ADME, Microsome", "conditions": "read-out: Stability"}, "PC-3 [29]": {"tested_on": "PC-3", "experiment": "Inhibition of colony formation in human PC-3 cells at 1000 nM incubated for 5 to 7 days by crystal violet staining assay", "format": "functional, cell-based", "conditions": "time 5-7 day"}, "CFPAC-1 [30]": {"tested_on": "CFPAC-1", "experiment": "Inhibition of mitochondrial respiration in human CFPAC-1 cells assessed as reduction in oxygen consumption rate at 1 to 30 nM incubated for 1 hr by seahorse XF96 flux analyzer", "format": "functional, cell-based", "conditions": "dose 1-30 nM, DDE = dose-dependent effect"}, "[31]": {"molecular_target": "T1, Signal transducer and activator of transcription 3", "experiment": "Inhibition of STAT3 in human BXPC-3 cells assessed as inhibition of IL-6 stimulated nuclear STAT3 phosphorylation at Tyr 705 at 1 to 30 nM by western blot assay", "format": "cell-based", "conditions": "dose 1-30 nM"}, "Mus musculus": {"tested_on": "Mus musculus", "experiment": "In vivo inhibition of STAT3 in BALB/c mouse xenografted with human BXPC-3 cells assessed as inhibition of STAT3 phosphorylation at Ser 727 at 30 mg/kg,po administrated once daily for 8 weeks by immunohistochemical analysis", "format": "functional, organism-based"}}, "note": "Activity calls are given as the source filed them. No cut-off for these calls is given here."}
{"compound": "COc1ccc(-c2noc(-c3cnc(Oc4ccc5cc(C(=O)N6CCN(Cc7ccc(OCC(F)(F)F)cc7)CC6)n(C)c5c4)cn3)n2)cc1", "values": [{"measurement": "microsomal CLint", "setting": "[1]", "result": 18.3, "unit": "µL/min/mg"}, {"measurement": "inhibition", "setting": "BXPC-3 [2]", "result": "Dde"}, {"measurement": "inhibition", "setting": "[3]", "result": "Dde"}, {"measurement": "IC50", "setting": "PC-3 [4]", "result": "> 1000", "unit": "nM"}, {"measurement": "half-life", "setting": "[5]", "result": 9.4, "unit": "h"}, {"measurement": "IC50", "setting": "Cytochrome P450 2D6", "result": "> 50000", "unit": "nM"}, {"measurement": "Cmax", "setting": "[6]", "result": 1810, "unit": "ng/mL"}, {"measurement": "Vd", "setting": "[7]", "result": 1.27, "unit": "L/kg"}, {"measurement": "inhibition in vivo at 10 mg/kg", "setting": "BXPC-3 [8]", "result": 69.2, "unit": "%"}, {"measurement": "IC50", "setting": "Capan-2", "result": 1.9, "unit": "nM"}, {"measurement": "Activity", "setting": "[9]", "result": "Non-Toxic"}, {"measurement": "IC50", "setting": "[10]", "result": "> 10000", "unit": "nM"}, {"measurement": "Activity", "setting": "[11]", "result": "Non-Toxic"}, {"measurement": "MRT last at 24 h", "setting": "[12]", "result": 9.8, "unit": "h"}, {"measurement": "IC50", "setting": "Cytochrome P450 3A4", "result": "> 50000", "unit": "nM"}, {"measurement": "inhibition", "setting": "[13]", "result": "Tde"}, {"measurement": "Kd", "setting": "[14]", "result": 21.3, "unit": "nM"}, {"measurement": "Activity", "setting": "[15]", "result": "Non-Toxic"}, {"measurement": "IC50", "setting": "CFPAC-1 [16]", "result": 6, "unit": "nM"}, {"measurement": "Activity", "setting": "BXPC-3 [17]", "result": "Active"}, {"measurement": "IC50", "setting": "Cytochrome P450 2C19", "result": "> 50000", "unit": "nM"}, {"measurement": "Activity", "setting": "[18]", "result": "Non-Toxic"}, {"measurement": "Activity", "setting": "[19]", "result": "Active"}, {"measurement": "IC50", "setting": "[20]", "result": 5.3, "unit": "nM"}, {"measurement": "Activity", "setting": "[21]", "result": "Non-Toxic"}, {"measurement": "inhibition", "setting": "BXPC-3 [22]", "result": "Dde"}, {"measurement": "inhibition", "setting": "[23]", "result": "Dde"}, {"measurement": "Activity", "setting": "[24]", "result": "Non-Toxic"}, {"measurement": "IC50", "setting": "[25]", "result": "> 10000", "unit": "nM"}, {"measurement": "inhibition", "setting": "[26]", "result": "Active"}, {"measurement": "IC50", "setting": "[27]", "result": "> 10000", "unit": "nM"}, {"measurement": "remaining at 1 h", "setting": "[28]", "result": 60.5, "unit": "%"}, {"measurement": "inhibition", "setting": "PC-3 [29]", "result": "Active"}, {"measurement": "inhibition", "setting": "CFPAC-1 [30]", "result": "Dde"}, {"measurement": "inhibition", "setting": "[31]", "result": "Active"}, {"measurement": "inhibition", "setting": "Mus musculus", "result": "Active"}]}
